Reference: patent US9028860B2, “Partially microcellular, selectively hydrophilic composite construct for ocular drug delivery” (Poly-Med, Inc., priority 2010, dated 2015)

Assay: Drug delivery profile: diffusion of loaded drug from foam-film composite to wetted receptor foam piece, HPLC
Assay type: physicochemical
Settings: 1x1 cm composite loaded with 100 μL of 261.5 mg/mL solution; on wetted 2x2 cm foam piece; 10 minutes, 37° C.
Procedure: • A foam-film composite made using the process outlined in example 3 was used to evaluate the drug delivery profile of said composite after drug loading. This was done by loading a dry 1×1 cm piece of the composite foam-film with 100 μL of our 261.5 mg/mL solution of dexamethasone disodium phosphate in nanopure water. This piece was then placed on top of a wetted 2×2 cm piece without the flexible film. These two pieces were left in contact for a period of 10 minutes at 37° C. After […] the pieces were separated and the receptor (bottom) piece was placed into a vial. At this point 5 mL of water was added to the vial and the piece was shaken in this new volume of water for 10 minutes. The aqueous layer was then filtered through a 0.45 μm filter and run on a reverse phase HPLC. Using a C18 column and a 12 minute gradient method of water and acetonitrile, it was determined that about 12 mg or about 45% of the loaded DSP diffused to the receptor (bottom) piece.

**Q.** For C[C@@H]1C[C@H]2[C@@H]3CCC4=CC(=O)C=C[C@]4(C)[C@@]3(F)[C@@H](O)C[C@]2(C)[C@@]1(O)C(=O)COP(=O)([O-])[O-].[Na+].[Na+] [DSP, dexamethasone disodium phosphate], which “amount of DSP diffused to the receptor (bottom) piece” value is on record?
**A.** Its value is “about 12 mg”.

**Q.** And the “percent of the loaded DSP diffused to the receptor (bottom) piece” value?
**A.** The value was “about 45%”.
